The values that follow come from BindingDB's records for doi:10.1016/j.bmcl.2004.04.032 (Bristol-Myers Squibb, 2004).

One experiment has as its target T1, Thyroid hormone receptor alpha (Homo sapiens, UniProt P10827).
T1 sequence (P10827 whole entry): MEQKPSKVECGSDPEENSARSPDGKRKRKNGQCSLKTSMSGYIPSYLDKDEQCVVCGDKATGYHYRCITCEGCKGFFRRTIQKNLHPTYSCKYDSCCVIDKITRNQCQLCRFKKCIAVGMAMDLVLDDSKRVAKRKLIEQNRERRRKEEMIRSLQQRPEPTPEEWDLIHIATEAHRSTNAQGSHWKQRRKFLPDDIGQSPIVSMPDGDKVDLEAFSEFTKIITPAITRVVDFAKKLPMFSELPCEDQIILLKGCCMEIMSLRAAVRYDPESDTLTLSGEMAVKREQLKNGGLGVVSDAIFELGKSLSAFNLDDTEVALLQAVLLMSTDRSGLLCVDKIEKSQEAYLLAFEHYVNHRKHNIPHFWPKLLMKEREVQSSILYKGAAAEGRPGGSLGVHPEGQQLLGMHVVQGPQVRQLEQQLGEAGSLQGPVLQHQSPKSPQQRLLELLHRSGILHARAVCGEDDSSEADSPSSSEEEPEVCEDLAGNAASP
Kind of experiment: TRalpha-Binding Assay.
Conditions: not given
In turn, `O=C(O)Cc1cc(Br)c(Oc2ccc(O)c(C(=O)NCC(c3ccccc3)c3ccccc3)c2)c(Br)c1` [2-(3,5-dibromo-4-{3-[(2,2-diphenylethyl)carbamoyl]-4-hydroxyphenoxy}phenyl)acetic acid] registered an IC50 of 0.018 µM. Still for that read-out and setting: for `O=C(O)Cc1cc(Br)c(Oc2ccc(O)c(Oc3ccccc3C(F)(F)F)c2)c(Br)c1` [2-(3,5-dibromo-4-{4-hydroxy-3-[2-(trifluoromethyl)phenoxy]phenoxy}phenyl)acetic acid] the value was 0.244 µM; for `O=C(O)Cc1cc(Br)c(Oc2ccc(O)c(Oc3cccc(C(F)(F)F)c3)c2)c(Br)c1` [2-(3,5-dibromo-4-{4-hydroxy-3-[3-(trifluoromethyl)phenoxy]phenoxy}phenyl)acetic acid], 0.05 µM.

`O=C(O)Cc1cc(Br)c(Oc2ccc(O)c(Oc3ccc(C(F)(F)F)cc3)c2)c(Br)c1` [2-(3,5-dibromo-4-{4-hydroxy-3-[4-(trifluoromethyl)phenoxy]phenoxy}phenyl)acetic acid] gave an IC50 of 0.326 µM. The same measure, in the same setting: for `O=C(O)Cc1cc(Br)c(Oc2ccc(O)c(C(=O)NCCc3ccccc3)c2)c(Br)c1` [2-(3,5-dibromo-4-{4-hydroxy-3-[(2-phenylethyl)carbamoyl]phenoxy}phenyl)acetic acid] the value was 0.015 µM. `O=C(O)Cc1cc(Br)c(Oc2ccc(O)c(C(=O)NCCCc3ccccc3)c2)c(Br)c1` [2-(3,5-dibromo-4-{4-hydroxy-3-[(3-phenylpropyl)carbamoyl]phenoxy}phenyl)acetic acid] had an IC50 of 0.203 µM. Take `O=C(O)Cc1cc(Br)c(Oc2ccc(O)c(C(=O)NCCCCc3ccccc3)c2)c(Br)c1` [2-(3,5-dibromo-4-{4-hydroxy-3-[(4-phenylbutyl)carbamoyl]phenoxy}phenyl)acetic acid]: the IC50 was 0.281 µM. Same read-out and setting: for `O=C(O)Cc1cc(Cl)c(Oc2ccc(O)c(C(=O)NCCc3ccccc3)c2)c(Cl)c1` [2-(3,5-dichloro-4-{4-hydroxy-3-[(2-phenylethyl)carbamoyl]phenoxy}phenyl)acetic acid] the value was 0.127 µM; for `O=C(O)Cc1cc(Br)c(Oc2ccc(O)c(Oc3ccccc3)c2)c(Br)c1` [2-[3,5-dibromo-4-(4-hydroxy-3-phenoxyphenoxy)phenyl]acetic acid], 0.123 µM; for `COc1ccccc1CCNC(=O)c1cc(Oc2c(Br)cc(CC(=O)O)cc2Br)ccc1O` [2-[3,5-dibromo-4-(4-hydroxy-3-{[2-(2-methoxyphenyl)ethyl]carbamoyl}phenoxy)phenyl]acetic acid], 0.096 µM. Compound `COc1cccc(CCNC(=O)c2cc(Oc3c(Br)cc(CC(=O)O)cc3Br)ccc2O)c1` [2-[3,5-dibromo-4-(4-hydroxy-3-{[2-(3-methoxyphenyl)ethyl]carbamoyl}phenoxy)phenyl]acetic acid] displayed an IC50 of 0.093 µM. Same read-out and setting: for `COc1ccc(CCNC(=O)c2cc(Oc3c(Br)cc(CC(=O)O)cc3Br)ccc2O)cc1` [2-[3,5-dibromo-4-(4-hydroxy-3-{[2-(4-methoxyphenyl)ethyl]carbamoyl}phenoxy)phenyl]acetic acid] the value was 0.228 µM; for `O=C(O)Cc1cc(Br)c(Oc2ccc(O)c(C(=O)NCCc3ccccn3)c2)c(Br)c1` [2-[3,5-dibromo-4-(4-hydroxy-3-{[2-(pyridin-2-yl)ethyl]carbamoyl}phenoxy)phenyl]acetic acid], 1.13 µM. Same read-out and setting: for `O=C(O)Cc1cc(Br)c(Oc2ccc(O)c(Oc3ccccc3O)c2)c(Br)c1` [2-{3,5-dibromo-4-[4-hydroxy-3-(2-hydroxyphenoxy)phenoxy]phenyl}acetic acid] the value was 1.47 µM; for `O=C(O)Cc1cc(Br)c(Oc2ccc(O)c(Oc3cccc(O)c3)c2)c(Br)c1` [2-{3,5-dibromo-4-[4-hydroxy-3-(3-hydroxyphenoxy)phenoxy]phenyl}acetic acid], 0.549 µM; for `O=C(O)Cc1cc(Br)c(Oc2ccc(O)c(Oc3cccc(-c4ccccc4)c3)c2)c(Br)c1` [2-{3,5-dibromo-4-[4-hydroxy-3-(3-phenylphenoxy)phenoxy]phenyl}acetic acid], 0.499 µM. Same read-out and setting: for `O=C(O)Cc1cc(Br)c(Oc2ccc(O)c(Oc3ccc(O)cc3)c2)c(Br)c1` [2-{3,5-dibromo-4-[4-hydroxy-3-(4-hydroxyphenoxy)phenoxy]phenyl}acetic acid] the value was 0.237 µM. In the case of `O=C(O)Cc1cc(Br)c(Oc2ccc(O)c(C(=O)Nc3ccccc3)c2)c(Br)c1` [2-{3,5-dibromo-4-[4-hydroxy-3-(phenylcarbamoyl)phenoxy]phenyl}acetic acid], the IC50 is 0.424 µM.

Compound `O=C(O)Cc1cc(Br)c(Oc2ccc(O)c(C(=O)NCc3ccccc3)c2)c(Br)c1` [2-{4-[3-(benzylcarbamoyl)-4-hydroxyphenoxy]-3,5-dibromophenyl}acetic acid] yielded a 50% inhibitory concentration (IC50) of 0.084 µM.

The same experiment, now with this note: pH 7; 4 °C.
`O=C(O)Cc1cc(Cl)c(Oc2ccc(O)c(-c3cccc(OC(F)F)c3)c2)c(Cl)c1` [2-(3,5-dichloro-4-{3-[3-(difluoromethoxy)phenyl]-4-hydroxyphenoxy}phenyl)acetic acid] yielded an IC50 of 0.03 µM. `O=C(O)Cc1cc(Cl)c(Oc2ccc(O)c(-c3ccccc3C(F)(F)F)c2)c(Cl)c1` [2-(3,5-dichloro-4-{4-hydroxy-3-[2-(trifluoromethyl)phenyl]phenoxy}phenyl)acetic acid] registered a 50% inhibitory concentration (IC50) of 0.018 µM. Same read-out and setting: next, `CC(C)c1cccc(-c2cc(Oc3c(Cl)cc(CC(=O)O)cc3Cl)ccc2O)c1` [2-(3,5-dichloro-4-{4-hydroxy-3-[3-(propan-2-yl)phenyl]phenoxy}phenyl)acetic acid]: 0.124 µM; `O=C(O)Cc1cc(Cl)c(Oc2ccc(O)c(-c3cccc(OC(F)(F)F)c3)c2)c(Cl)c1` [2-(3,5-dichloro-4-{4-hydroxy-3-[3-(trifluoromethoxy)phenyl]phenoxy}phenyl)acetic acid]: 0.1 µM; `O=C(O)Cc1cc(Cl)c(Oc2ccc(O)c(-c3cccc(C(F)(F)F)c3)c2)c(Cl)c1` [2-(3,5-dichloro-4-{4-hydroxy-3-[3-(trifluoromethyl)phenyl]phenoxy}phenyl)acetic acid]: 0.04 µM. Compound `O=C(O)Cc1cc(Cl)c(Oc2ccc(O)c(-c3ccc(C(F)(F)F)cc3)c2)c(Cl)c1` [2-(3,5-dichloro-4-{4-hydroxy-3-[4-(trifluoromethyl)phenyl]phenoxy}phenyl)acetic acid] had a half-maximal inhibitory concentration (IC50) of 0.515 µM. As to `O=C(O)Cc1cc(Cl)c(Oc2ccc(O)c(C3CCCCC3)c2)c(Cl)c1` [2-[3,5-dichloro-4-(3-cyclohexyl-4-hydroxyphenoxy)phenyl]acetic acid], the IC50 came out at 0.258 µM.

The compound `O=C(O)Cc1cc(Cl)c(Oc2ccc(O)c(-c3ccccc3)c2)c(Cl)c1` [2-[3,5-dichloro-4-(4-hydroxy-3-phenylphenoxy)phenyl]acetic acid] came in with an IC50 of 0.152 µM. For the compound `CCc1cccc(-c2cc(Oc3c(Cl)cc(CC(=O)O)cc3Cl)ccc2O)c1` [2-{3,5-dichloro-4-[3-(3-ethylphenyl)-4-hydroxyphenoxy]phenyl}acetic acid], the IC50 was found to be 0.013 µM. `O=C(O)Cc1cc(Cl)c(Oc2ccc(O)c(-c3nccs3)c2)c(Cl)c1` [2-{3,5-dichloro-4-[4-hydroxy-3-(1,3-thiazol-2-yl)phenoxy]phenyl}acetic acid]: the 50% inhibitory concentration (IC50) was 0.558 µM.

The compound `O=C(O)Cc1cc(Cl)c(Oc2ccc(O)c(-c3ccccc3O)c2)c(Cl)c1` [2-{3,5-dichloro-4-[4-hydroxy-3-(2-hydroxyphenyl)phenoxy]phenyl}acetic acid] gave a concentration for half-maximal inhibition (IC50) of 1.05 µM. The same measure, in the same setting: next, `O=C(O)Cc1cc(Cl)c(Oc2ccc(O)c(-c3cccc(O)c3)c2)c(Cl)c1` [2-{3,5-dichloro-4-[4-hydroxy-3-(3-hydroxyphenyl)phenoxy]phenyl}acetic acid]: 1.16 µM.

Compound `COc1cccc(-c2cc(Oc3c(Cl)cc(CC(=O)O)cc3Cl)ccc2O)c1` [2-{3,5-dichloro-4-[4-hydroxy-3-(3-methoxyphenyl)phenoxy]phenyl}acetic acid] gave an IC50 of 0.297 µM. In turn, `O=C(O)Cc1cc(Cl)c(Oc2ccc(O)c(-c3cccc(-c4ccccc4)c3)c2)c(Cl)c1` [2-{3,5-dichloro-4-[4-hydroxy-3-(3-phenylphenyl)phenoxy]phenyl}acetic acid] displayed a half-maximal inhibitory concentration (IC50) of 0.454 µM. The same measure, in the same setting: next, `O=C(O)Cc1cc(Cl)c(Oc2ccc(O)c(-c3ccc(O)cc3)c2)c(Cl)c1` [2-{3,5-dichloro-4-[4-hydroxy-3-(4-hydroxyphenyl)phenoxy]phenyl}acetic acid]: 0.847 µM; `O=C(O)Cc1cc(Cl)c(Oc2ccc(O)c(-c3ccccn3)c2)c(Cl)c1` [2-{3,5-dichloro-4-[4-hydroxy-3-(pyridin-2-yl)phenoxy]phenyl}acetic acid]: 1.53 µM. The compound `O=C(O)Cc1cc(Cl)c(Oc2ccc(O)c(-c3cccnc3)c2)c(Cl)c1` [2-{3,5-dichloro-4-[4-hydroxy-3-(pyridin-3-yl)phenoxy]phenyl}acetic acid] had a concentration for half-maximal inhibition (IC50) of 0.819 µM.

In turn, `O=C(O)Cc1cc(Cl)c(Oc2ccc(O)c(-c3ccncc3)c2)c(Cl)c1` [2-{3,5-dichloro-4-[4-hydroxy-3-(pyridin-4-yl)phenoxy]phenyl}acetic acid] had an IC50 of 0.145 µM.

Compound `O=C(O)Cc1cc(Cl)c(Oc2ccc(O)c(-c3cncnc3)c2)c(Cl)c1` [2-{3,5-dichloro-4-[4-hydroxy-3-(pyrimidin-5-yl)phenoxy]phenyl}acetic acid] came in with an IC50 of 0.269 µM.
